Test results reported in the NIST ThermoML archive (doi:10.1016/j.jct.2019.03.022).

Settings: Liquid, Frequency=5 MHz, Pulse-echo method

Cc1ccccc1 [toluene]
Settings | speed of sound [m/s]
323.29 K, 10200 kPa | 1253.2
323.32 K, 20480 kPa | 1305.4
323.32 K, 20600 kPa | 1305.9
323.34 K, 31540 kPa | 1356.7
323.37 K, 44870 kPa | 1413.5
323.38 K, 60790 kPa | 1475.5
323.39 K, 60820 kPa | 1475.5
373.82 K, 7570 kPa | 1046.5
373.83 K, 2170 kPa | 1007.9
373.83 K, 21270 kPa | 1132.5
373.85 K, 35520 kPa | 1209.3
373.87 K, 64470 kPa | 1340.7
373.9 K, 50350 kPa | 1280
422.93 K, 6580 kPa | 863.73
422.98 K, 20740 kPa | 974.49
423.01 K, 36450 kPa | 1073.4
423.04 K, 56200 kPa | 1176.9

O [water]
Settings | speed of sound [m/s]
306.13 K, 1030 kPa | 1517.3
306.14 K, 4950 kPa | 1524
306.15 K, 19980 kPa | 1549.5
306.15 K, 59750 kPa | 1616.5
306.16 K, 29980 kPa | 1566.5
306.16 K, 39950 kPa | 1583.3
306.16 K, 49950 kPa | 1600.1
357.97 K, 20280 kPa | 1593.1
357.99 K, 400 kPa | 1553.7
358 K, 30380 kPa | 1612.5
358 K, 40230 kPa | 1630.9
358.01 K, 50080 kPa | 1649
358.03 K, 59980 kPa | 1666.8
420.93 K, 1180 kPa | 1471.5
421.06 K, 20130 kPa | 1520.6
421.12 K, 40030 kPa | 1568.6
421.2 K, 59900 kPa | 1613.1
